Measured values published in patent US8507464B2, “Phosphoramidate alkylator prodrugs” (Threshold Pharmaceuticals, Inc., priority 2005, dated 2013).
Like-named read-outs stand apart in the source and are kept apart here.

Tests used:
[1] = Plasma stability (Table 2B); settings: 30 min
HT29 cells = experiment: Antiproliferation assay (Alamar Blue), anoxia vs air; settings: Homo sapiens, HT-29, 2 h
NCI-H460 cells [2] = experiment: as above; settings: Homo sapiens, NCI-H460, 2 h
H460 cell line = experiment: Anti-proliferation assay, hypoxia vs normoxia (Table 1A); settings: for IC50: Homo sapiens; for HCR P: ratio of IC50 in normoxia and hypoxia
HT29 = experiment: Anti-proliferation assay, hypoxia vs normoxia (Table 1B); settings: for IC50: Homo sapiens
[3] = tested on: mouse (MLM) liver microsomal proteins; type: in vitro ADME; settings: Table 2B
DX-5 = experiment: Anti-proliferation assay, hypoxia vs normoxia (Table 1B)
MTD (Table 2B) = settings: in vivo
MES-SA/Dx5 cells = experiment: Antiproliferation assay (Alamar Blue), anoxia vs air; settings: Homo sapiens, MES-SA/Dx5, 2 h
in vivo = settings: CD-1, mouse, ip, 50 mg/kg
[4] = type: physicochemical; settings: glassy carbon, Ag/AgCl reference
NCI-H460 cells [5] = experiment: Clonogenic assay - oxygen dependence; settings: Homo sapiens
MES-SA cells = experiment: Antiproliferation assay (Alamar Blue), anoxia vs air; settings: Homo sapiens, 2 h
NCI-H460 cells [6] = experiment: Antiproliferation assay - oxygen dependence; type: cell-based, human; settings: Homo sapiens
From the text: . […] The calculated IC50 values (μM) are tabulated in Table Y1 (H460 cells) or Table Y2 (HT29 cells) below.

[7] = tested on: H460 lung carcinoma spheroids; experiment: Spheroid model, clonogenic survival; settings: Homo sapiens, NCI-H460, 2 h, read-out: IC90 H460 Spheroid 10% O2
[8] = logP (partitioning between octanol and water); type: physicochemical; settings: logP
From the text: As used herein “LogP” means a measure of lipophilicity of a substance determined based on the partitioning of the substance betwen octanol and water.

NCI H460 xenograft = type: in vivo, mouse; settings: Group 3: Compound 24 3 mg/kg (q1d × 5 d)/week × 3 week; day 27; vs vehicle
From the text: Comparisons were made on day 27 because that was the last day of measurements for the vehicle group and those animals were sacrificed.

[9] = tested on: H460 cells exposed as monolayers; experiment: Clonogenic survival of monolayer cells (Example 35); settings: Homo sapiens, NCI-H460, 2 h
HT29 xenograft = experiment: HT-29 human colon carcinoma xenograft mouse model (Example 50); type: in vivo
Method: Female CB17/SCID mice (purchased from Charles River, Cambridge, Mass.), 7-8 weeks of age, were allowed to acclimatize for at least three days, and handled under pathogen-free conditions. Human colon carcinoma cell line HT29 was obtained from the American Type Culture Collection. The cell lines were cultured and harvested as described in Example 47 above, and inoculated at 3×10^6 cells/animal in the peritoneal subcutaneous space. […]; in saline) on the days the combination therapy was scheduled; 5FU alone (in saline), or CDDP alone.
In control groups, tumors were implanted in two locations as part of a separate study of effect of location on control group tumor growth. […] The body weight and tumor volume were measured as described in Example 47. Tumor growth inhibition measured on day 25 when vehicle tumors had reached the maximal size and animals in that group were sacrificed is tabulated below.

[10] = read-out: IC50 H460 Air, air, 2 h exposure
[11] = read-out: IC50 H460 Anoxia, anoxia, 2 h exposure
[12] = NCI-H460, read-out: Hypoxia P (proliferation IC50)
[13] = NCI-H460, read-out: Normoxia P (proliferation IC50)
[14] = read-out: IC50 MES-SA/Dx5 Anoxia

Cn1c(COP(=O)(N(CCCl)CCCl)N(CCCl)CCCl)cnc1[N+](=O)[O-] [Compound 6]
Plasma stability (% at 30 min) [1]: 60% | IC50 (HT29 cells; read-out: IC50 HT29 Air): > 100000 nM | IC50 (HT29 cells; read-out: IC50 HT29 Anoxia): 22000 nM | IC50 (NCI-H460 cells [2]; [10]): > 100000 nM | IC50 (NCI-H460 cells [2]; [11]): 700 nM | IC50 (H460 cell line; [12]): 700 nM | IC50 (H460 cell line; [13]): > 100000 nM | HCR P (H460 cell line): >140 | HT29 HCR P (HT29): >2 | IC50 (HT29; HT-29, read-out: HT29 P H (proliferation IC50, hypoxia)): 55000 nM | IC50 (HT29; HT-29, read-out: HT29 P N (proliferation IC50, normoxic)): > 100000 nM | Metabolic stability (MLM) (% at 30 min) [3]: 0% | DX-5 HCR (DX-5): >20 | IC50 (DX-5; read-out: DX-5 P H (proliferation IC50, hypoxia)): 5000 nM | IC50 (DX-5; read-out: DX-5 P N (proliferation IC50, normoxic)): > 100000 nM | MTD (MTD (Table 2B)): 250 mg/kg | IC50 (MES-SA/Dx5 cells; read-out: IC50 MES-SA/Dx5 Air): > 100000 nM | IC50 (MES-SA/Dx5 cells; [14]): 5000 nM

O=[N+]([O-])c1ccc(COP(=O)(NCCBr)NCCBr)o1 [Compound 24]
AUC (in vivo): 64000 ng·h/mL | Cmax (in vivo): 7600 ng/mL | Tmax (in vivo): 5 min | half-life (in vivo): 4.1 min | Reduction Potentials, 100 mV/sec ([4]; scan rate 100 mV/sec): −568 mV | Reduction Potentials, 10,000 mV/sec ([4]; scan rate 10,000 mV/sec): −636 mV | IC90 (NCI-H460 cells [5]; NCI-H460, read-out: IC90 H460 0.6% O2): 250 nM | IC90 (NCI-H460 cells [5]; NCI-H460, read-out: IC90 H460 Air): 14000 nM | IC90 (NCI-H460 cells [5]; NCI-H460, read-out: IC90 H460 N2): 70 nM | IC50 (NCI-H460 cells [2]; [10]): 4000 nM | IC50 (NCI-H460 cells [2]; [11]): 10 nM | IC50 (H460 cell line; [12]): 10 nM | IC50 (H460 cell line; NCI-H460, read-out: IC50 in cells under hypoxia): 50 nM | IC50 (H460 cell line; [13]): 4000 nM | fold more toxic in hypoxic cells than in normoxic cells (H460 cell line; anti-proliferation cytotoxicity assay): 400 fold | HCR P (H460 cell line): 400 | IC50 (MES-SA cells; read-out: IC50 MES-SA Air): 2000 nM | IC50 (MES-SA cells; read-out: IC50 MES-SA Anoxia): 100 nM | IC50 (NCI-H460 cells [6]; NCI-H460, read-out: IC50 in H460 cells, 0.6% O2): 850 nM | IC50 (NCI-H460 cells [6]; NCI-H460, read-out: IC50 in H460 cells, Air): > 1000 nM | IC50 (NCI-H460 cells [6]; NCI-H460, read-out: IC50 in H460 cells, N2): 7 nM | IC90 [7]: 3000 nM | IC50 (MES-SA/Dx5 cells; read-out: IC50 MES-SA/Dx5 Air): 800 nM | IC50 (MES-SA/Dx5 cells; [14]): 100 nM | logP [8]: < 0 | % Inhibition vs Group 1 (NCI H460 xenograft): 39.9% | IC90 ([9]; read-out: IC90 H460 Monolayer 0.6% O2): 250 nM | IC90 ([9]; read-out: IC90 H460 Monolayer Air): 4000 nM | IC90 ([9]; read-out: IC90 H460 Monolayer N2): 70 nM | tumor growth inhibition, monotherapy (HT29 xenograft): more than 40% | body weight (HT29 xenograft; during treatment, recovered after end of treatment): minor decreases in weights
